Experiments:
[1] = Ligand reduction potential; format: physicochemical; conditions: vs n.h.e., 298K, 0.1 M NBu4ClO4, MeCN
From the text: The quenching process with urate is believed to involve an intermediate exciplex, involving a short-lived bonding π-π interaction. This is disfavoured as the sensitising chromophore becomes less susceptible to accept electron density and is reflected in the ligand reduction potential. For compound (7), this was −1.52 V (vs n.h.e., 298K, 0.1 M NBu4ClO4, MeCN), which compares to −1.07 V for the cyclohexyl tetraazatriphenylene and −1.60 V for the 1-aza-xanthone (2). Terbium complexes of L^1 and L^2 resisted urate and ascorbate quenching more effectively than the comparator complexes.

[2] = tested on: Chinese hamster ovarian cells; conditions: observed previously under the same standard conditions; cited from earlier work
[3] = Stern-Volmer excited state quenching by urate; format: physicochemical; conditions: pH 7.4, 0.1 M HEPES, 298K
From the text: (§1) A key issue in assessing the utility of such luminescent complexes for intracellular application is their sensitivity towards quenching by endogenous electron-rich species (e.g. urate/ascorbate) either when the complexes are free or protein bound. Accordingly, the Stern-Volmer quenching constants (KSv^−1/mM) defining their relative sensitivity to quenching can be assessed comparatively, (Table 2).

[4] = Stern-Volmer excited state quenching by ascorbate; format: physicochemical; conditions: pH 7.4, 0.1 M HEPES, 298K
From the text: as §1

[5] = Absorption spectrum of Tb(III) complexes; format: physicochemical; conditions: for γmax: absorption, Tb(III) complexes; for ε: molar extinction coefficient
From the text: (§2) Absorption, emission and triplet energy data for these complexes are collated in Table 1.
The absorption spectrum of [TbL^1]

human serum albumin = human serum albumin (Homo sapiens, UniProt P02768); experiment: Emission lifetime in the presence of human serum albumin, urate and ascorbate; conditions: 0.4 mM human serum albumin, 0.1 mM sodium urate, 0.2 mM ascorbate, pH 7.4, 298K, 0.1M HEPES
Sequence of human serum albumin (P02768 25-609): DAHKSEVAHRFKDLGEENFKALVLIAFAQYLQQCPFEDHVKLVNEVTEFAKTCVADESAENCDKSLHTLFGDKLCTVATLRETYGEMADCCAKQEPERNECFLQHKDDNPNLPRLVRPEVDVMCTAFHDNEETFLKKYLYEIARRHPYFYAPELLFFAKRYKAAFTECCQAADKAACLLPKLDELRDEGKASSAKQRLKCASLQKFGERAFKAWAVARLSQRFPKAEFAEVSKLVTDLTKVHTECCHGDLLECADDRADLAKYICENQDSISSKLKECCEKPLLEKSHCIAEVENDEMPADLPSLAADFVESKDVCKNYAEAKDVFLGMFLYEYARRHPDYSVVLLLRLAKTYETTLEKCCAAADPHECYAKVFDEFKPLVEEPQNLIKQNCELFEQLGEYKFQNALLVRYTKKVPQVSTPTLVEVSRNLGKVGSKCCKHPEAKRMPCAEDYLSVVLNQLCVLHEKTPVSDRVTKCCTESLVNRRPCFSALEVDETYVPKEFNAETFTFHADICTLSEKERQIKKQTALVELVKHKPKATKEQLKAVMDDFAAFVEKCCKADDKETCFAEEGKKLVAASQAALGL
Description: In the presence of 0.4 mM human serum albumin, 0.1 mM sodium urate and 0.2 mM ascorbate, (pH 7.4, 298K, 0.1M HEPES), the emission lifetime of [TbL^2]^3+ was within 10% of its value in water, i.e. 2.1 ms, compared to 0.7 ms and 0.5 ms for [TbL^6]^3+ and [TbL^4]^3+ respectively under the same conditions.

[6] = Terbium emission lifetime / decay rate constants in H2O and D2O; format: physicochemical; conditions: lifetime ±10%
From the text: as §2

[7] = Triplet energy measured on Gd analogues in frozen glass (77K); format: physicochemical; conditions: Gd analogues in frozen glass of Et2O/isopentane/ethanol or EtOH/MeOH (2:1)
Emission quantum yield = format: physicochemical; conditions: quantum yields ±15%
From the text: as §2

[8] = Stern-Volmer excited state quenching by iodide; format: physicochemical; conditions: pH 7.4, 0.1 M HEPES, 298K
From the text: as §1

[9] = first of two columns headed kD2O^Tb
[10] = second of two columns headed kD2O^Tb

Molecule | ligand reduction potential [1] [V] | Ksv^−1 (urate) [3] [mM] | Ksv^−1 ascorbate [4] [mM] | γmax [5] [nm] | ε [5] | emission lifetime (human serum albumin) [ms] | kD2O^Tb [6, 9] [s⁻¹] | kD2O^Tb [6, 10] [s⁻¹] | ET^Gd [7] | nem^Tb (H2O) (Emission quantum yield) [%] | Ksv^−1 (I^−) [8] [mM] | nuclear localisation [2]
CC(C)(C)c1ccc2oc3cccnc3c(=O)c2c1 [Compound 2, 7-Tert-Butyl-1-Azaxanthone] | −1.60 | – | – | – | – | – | – | – | – | – | – | –
Cc1ccn(-c2ccc3c(=O)c4cc(C(C)(C)C)ccc4oc3n2)n1 [Compound 7, 7-Tert-Butyl-2-(N-3′-Methylpyrazole)-1-Azaxanthone] | −1.52 | – | – | – | – | – | – | – | – | – | – | –
cyclohexyl tetraazatriphenylene [reference compound] | −1.07 | – | – | – | – | – | – | – | – | – | – | –

Further lines, with some results ahead:

ligand reduction potential [1] [V] | Ksv^−1 (urate) [3] [mM] | Ksv^−1 ascorbate [4] [mM] | γmax [5] [nm] | ε [5] | emission lifetime (human serum albumin) [ms] | kD2O^Tb [6, 9] [s⁻¹] | kD2O^Tb [6, 10] [s⁻¹] | ET^Gd [7] | nem^Tb (H2O) (Emission quantum yield) [%] | Ksv^−1 (I^−) [8] [mM] | Molecule | nuclear localisation [2]
– | 0.04 | 0.37 | 335 | 6,900 M^−1 cm^−1 | 0.5 | 610 | 350 | 24,800 cm^−1 | 37 | 9.2 | CC(NC(=O)CN1CCN(CC(=O)NC(C)c2ccccc2)CCN(Cc2ccc3c(=O)c4cc(C(C)(C)C)ccc4oc3n2)CCN(CC(=O)NC(C)c2ccccc2)CC1)c1ccccc1.[Tb+3] (stereo not shown) [[TbL^4]^3+] | tendency for nuclear localisation
– | – | – | 348 | 8,300 M^−1 cm^−1 | 0.7 | 640 | 580 | 23,800 cm^−1 | 40 | – | CC(NC(=O)CN1CCN(CC(=O)NC(C)c2ccccc2)CCN(Cc2ccc3c(n2)c2ncccc2c2nc4c(nc32)CCCC4)CCN(CC(=O)NC(C)c2ccccc2)CC1)c1ccccc1.[Tb+3] (stereo not shown) [[TbL^6]^3+] | tendency for nuclear localisation
